# Source: US6855730B2, “3-methylidenyl-2-indolinone modulators of protein kinase” (Sugen, Inc., priority 1998, dated 2005)
# Biological target: T1, PDGFR-β (Homo sapiens, UniProt P09619)
# T1 construct: host or cells: NIH 3T3
# Experiment: Biochemical PDGFR assay (ELISA, PDGFR-β expressing NIH 3T3 cell lysate)
# Conditions: read-out: bio PDGF IC50
# Method in brief: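 PDGFR-β from NIH 3T3 cell lysate captured on anti-PDGFR (28D4C10)-coated plates; compound preincubated 30 min, then 20 μM ATP kinase reaction 30 min at room temperature, stopped with EDTA. Phosphotyrosine detected by anti-phosphotyrosine antibody, peroxidase conjugate and ABTS/H2O2, read at 410 nm.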
# T1 sequence (P09619 33-1106): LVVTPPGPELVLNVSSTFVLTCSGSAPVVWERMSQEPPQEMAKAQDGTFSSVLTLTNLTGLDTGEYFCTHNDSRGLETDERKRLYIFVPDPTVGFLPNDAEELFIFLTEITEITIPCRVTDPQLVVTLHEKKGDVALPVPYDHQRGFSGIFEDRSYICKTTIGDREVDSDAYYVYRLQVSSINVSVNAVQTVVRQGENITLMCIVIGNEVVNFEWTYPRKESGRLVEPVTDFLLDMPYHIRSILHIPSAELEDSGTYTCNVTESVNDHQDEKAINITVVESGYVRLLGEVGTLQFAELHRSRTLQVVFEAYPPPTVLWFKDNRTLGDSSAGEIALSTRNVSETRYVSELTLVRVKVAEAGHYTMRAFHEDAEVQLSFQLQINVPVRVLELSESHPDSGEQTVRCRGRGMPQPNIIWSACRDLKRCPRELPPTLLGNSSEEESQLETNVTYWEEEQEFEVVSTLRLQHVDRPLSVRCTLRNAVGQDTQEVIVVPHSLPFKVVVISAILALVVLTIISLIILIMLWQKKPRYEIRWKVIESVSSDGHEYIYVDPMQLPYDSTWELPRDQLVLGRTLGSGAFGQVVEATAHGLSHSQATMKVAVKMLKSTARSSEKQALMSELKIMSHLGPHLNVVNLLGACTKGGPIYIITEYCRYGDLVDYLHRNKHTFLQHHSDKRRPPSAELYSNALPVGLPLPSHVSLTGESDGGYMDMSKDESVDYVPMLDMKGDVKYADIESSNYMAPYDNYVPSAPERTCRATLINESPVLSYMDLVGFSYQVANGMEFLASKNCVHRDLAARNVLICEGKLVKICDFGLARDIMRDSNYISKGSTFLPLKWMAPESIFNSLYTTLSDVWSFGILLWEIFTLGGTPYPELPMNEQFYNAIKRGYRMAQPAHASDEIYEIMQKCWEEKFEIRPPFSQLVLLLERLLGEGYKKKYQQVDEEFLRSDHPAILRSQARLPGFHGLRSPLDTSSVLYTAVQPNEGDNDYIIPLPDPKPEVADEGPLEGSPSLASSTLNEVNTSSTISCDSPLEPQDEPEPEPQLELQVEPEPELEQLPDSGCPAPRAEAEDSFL
row,IC50 [nM],Compound
1,1730,"CNC(=O)CCc1c(/C=C2\C(=O)Nc3ccccc32)[nH]c2c1CCCC2 [Example 201, N-Methyl-3-[2-(2-oxo-1,2-dihydroindol-3-ylidenemethyl)-4,5,6,7-tetrahydro-1H-indol-3-yl]-propionamide]"
2,50,"CCOC(=O)c1c(C)[nH]c(/C=C2\C(=O)Nc3ccc(Br)cc32)c1CCC(=O)O [Compound 114, 5-(5-Bromo-2-oxo-1,2-dihydroindol-3-ylidenemethyl)-4-(2-carboxyethyl)-2-methyl-1H-pyrrole-3-carboxylic acid ethyl ester]"
3,210,"COc1ccc2c(c1)NC(=O)/C2=C\c1[nH]cc(C)c1CCC(=O)O [Example 217, 3-[2-(6-Methoxy-2-oxo-1,2-dihydroindol-3-ylidenemethyl)-4-methyl-1H-pyrrol-3-yl]-propionic acid]"
